Test results as given in patent US11564912B2, “Methods for treating irritable bowel syndrome (IBS)” (Salix Pharmaceuticals, Inc., priority 2008, dated 2023).

Assays:
[1] = system: patients with diarrhea-predominant IBS (dIBS); test: 34-item IBS-QOL questionnaire, rifaximin 550 mg BID vs placebo; format: in vivo, human; design: key to Mean Change From Baseline in IBS-QOL Scores at Week 4: change in score on 0–100 scale, higher = better QOL; conditions: for Mean Change From Baseline in IBS-QOL Scores at Week 4: Rifaximin 1100 mg/d (n = 191)
Protocol: Both groups received placebo for an additional 14 days after the initial 2-week treatment. Quality of life was assessed with the 34-item IBS-QOL questionnaire at baseline and 4 weeks after initiating treatment. Each item was scored on a 5-point scale (1=not at all; 2=slightly; 3=moderately; 4=quite a bit; and 5=extremely or a great deal). Results for composite and subscale scores were converted to a scale ranging from 0 to 100, with higher scores indicating better QOL.
Following a 2-week initial treatment period, both groups of patients received placebo for an additional 14 days. Quality of life was assessed via the 34-item IBS-QOL questionnaire at baseline and 4 weeks after initiating treatment. Each item was scored on a 5-point scale (1=not at all; 2=slightly; 3=moderately; 4=quite a bit; 5=extremely or a great deal); results for composite and subscale scores were converted to a scale ranging from 0 to 100, with higher scores indicating better QOL.

[2] = system: species of Staphylococcus, Streptococcus, Enterococcus, and Enterobacteriaceae; conditions: cited from earlier work

(2S,16Z,18E,20S,21S,22R, 23R,24R,25S,26S,27S,28E)-5,6,21,23,25 Pentahydroxy-27-methoxy -2,4,11,16,20,22,24,26-octamethyl-2,7-(epoxypentadeca-(1,11,13)trienimino)benzofuro (4,5-e) pyrido(1,2,-a) benzimidazole-1,15(2H)-dione,25-acetate [Rifaximin]
Improvement with rifaximin over placebo, IBS-QOL at Week 4 ([1]; Body image): 37.4%
Mean Change From Baseline in IBS-QOL Scores at Week 4 ([1]; Body image): 20.1
Improvement with rifaximin over placebo, IBS-QOL at Week 4 ([1]; Dysphoria): 25.3%
Mean Change From Baseline in IBS-QOL Scores at Week 4 ([1]; Dysphoria): 24.8
Improvement with rifaximin over placebo, IBS-QOL at Week 4 ([1]; Food avoidance): 22.1%
Mean Change From Baseline in IBS-QOL Scores at Week 4 ([1]; Food avoidance): 25.0
Improvement with rifaximin over placebo, IBS-QOL at Week 4 ([1]; Health worry): 30.6%
Mean Change From Baseline in IBS-QOL Scores at Week 4 ([1]; Health worry): 16.0
Improvement with rifaximin over placebo, IBS-QOL at Week 4 ([1]; Interference with activity): 22.2%
Mean Change From Baseline in IBS-QOL Scores at Week 4 ([1]; Interference with activity): 22.2
Improvement with rifaximin over placebo, IBS-QOL at Week 4 ([1]; Overall score): 28.7%
Mean Change From Baseline in IBS-QOL Scores at Week 4 ([1]; Overall score, 14 days, scale 0 to 100): 20.4
Improvement with rifaximin over placebo, IBS-QOL at Week 4 ([1]; Relationship): 39.5%
Mean Change From Baseline in IBS-QOL Scores at Week 4 ([1]; Relationship): 14.9
Improvement with rifaximin over placebo, IBS-QOL at Week 4 ([1]; Sexual): 24.9%
Mean Change From Baseline in IBS-QOL Scores at Week 4 ([1]; Sexual): 13.6
Improvement with rifaximin over placebo, IBS-QOL at Week 4 ([1]; Social reaction): 31.6%
Mean Change From Baseline in IBS-QOL Scores at Week 4 ([1]; Social reaction): 17.3
In vitro antibacterial activity [2]: active
